Data published in PMC8294059, “Identification and Immune Assessment of T Cell Epitopes in Five Plasmodium falciparum Blood Stage Antigens to Facilitate Vaccine Candidate Selection and Optimization” (Frontiers in Immunology, 2021).
Where a SMILES comes first, the peptide text is derived from it.

The compounds below were run against HLA-A*0201 (Homo sapiens, UniProt P04439, D140Y/D185E/D98H/E176V/E277Q/G131W/G231S/I119V/I121R/I166T/I218V/L300P/L318F/N151K/N90K/P208A/P217A/Q86G/Q94H/R138H/R169H/T345S) (assay: In vitro class I HLA binding assay (fluorescence polarization competition)). Settings: allele A*0201; fluorescence polarization competition; read-out: IC50 (nM), in vitro HLA binding affinity.
Procedure: (§1) A cell-free class I HLA binding assay that allows for in vitro quantification of peptide-HLA binding affinity in a competition format was used. In this assay, a fluorescently labeled, high binding, control peptide is loaded onto 384-well ½-area plates along with unlabeled experimental peptides. To remove endogenous peptides and render the HLA A and B molecules receptive to binding, HLA is heated at 53°C for 15 minutes and immediately added to the assay. The mixture is then allowed to stand for three days. Once the mixture has reached steady equilibrium (at 72 hours), displacement of the high binding control peptide is measured through fluorescence polarization. Binding of experimental peptides is expressed as the percent inhibition of the labeled control peptide (experimental fluorescence / control fluorescence, multiplied by 100). The percent inhibition values for each experimental peptide (across a range of molar concentrations) are used to calculate the concentration which inhibits 50% of the labeled control peptide’s specific binding. This value is referred to as the peptide’s IC50.
Work on `CC[C@H](C)[C@H](NC(=O)[C@H](CO)NC(=O)[C@H](CC(N)=O)NC(=O)[C@H](CCC(=O)O)NC(=O)[C@H](CC(N)=O)NC(=O)[C@H](CC(N)=O)NC(=O)[C@H](Cc1ccccc1)NC(=O)[C@H](Cc1ccccc1)NC(=O)[C@@H](NC(=O)[C@@H](N)Cc1ccc(O)cc1)[C@@H](C)CC)C(=O)O` [CYRPA_304] (H-YIFFNNENSI-OH) yielded an IC50 of 2830 nM.
Work on `CC(C)C[C@H](NC(=O)[C@@H](N)Cc1ccccc1)C(=O)N1CCC[C@H]1C(=O)N[C@H](C(=O)NCC(=O)N[C@@H](C)C(=O)N[C@@H](Cc1ccccc1)C(=O)N[C@@H](CCCCN)C(=O)N[C@@H](C)C(=O)O)[C@@H](C)O` [AMA1_379] (H-FLPTGAFKA-OH) yielded an IC50 of 1390 nM.
Work on `CC[C@H](C)[C@H](NC(=O)[C@H](CC(N)=O)NC(=O)[C@H](CC(N)=O)NC(=O)[C@H](CC(C)C)NC(=O)[C@@H](N)Cc1c[nH]cn1)C(=O)N[C@@H](Cc1ccccc1)C(=O)N[C@@H](Cc1c[nH]cn1)C(=O)N[C@@H](Cc1c[nH]cn1)C(=O)N[C@@H](CC(C)C)C(=O)O` [RH5_489] (H-HLNNIFHHL-OH) yielded an IC50 of 225 nM.
`CC[C@H](C)[C@H](NC(=O)[C@H](CCCCN)NC(=O)[C@H](Cc1c[nH]c2ccccc12)NC(=O)[C@@H](NC(=O)[C@@H](NC(=O)[C@H](CCC(N)=O)NC(=O)[C@H](CC(N)=O)NC(=O)[C@H](Cc1ccc(O)cc1)NC(=O)[C@@H](NC(=O)[C@@H](N)Cc1ccc(O)cc1)[C@@H](C)CC)[C@@H](C)CC)[C@@H](C)CC)C(=O)O` [RIPR_1011] (H-YIYNQIIWKI-OH) showed an IC50 of 1950 nM.
In the case of `CC[C@H](C)[C@H](N)C(=O)N[C@@H](CC(C)C)C(=O)N[C@@H](CC(=O)O)C(=O)N[C@@H](CCSC)C(=O)N[C@@H](CO)C(=O)N[C@@H](CC(N)=O)C(=O)N[C@@H](CCC(=O)O)C(=O)N[C@@H](Cc1ccc(O)cc1)C(=O)N[C@@H](CO)C(=O)N[C@@H](CC(C)C)C(=O)O` [RH5_459] (H-ILDMSNEYSL-OH), the IC50 is reported as 6870 nM.
In the case of `CC[C@H](C)[C@H](NC(=O)[C@@H](N)Cc1ccccc1)C(=O)N[C@@H](CO)C(=O)N[C@@H](CC(=O)O)C(=O)N[C@@H](CC(=O)O)C(=O)N[C@@H](CCCCN)C(=O)N[C@@H](CC(=O)O)C(=O)N[C@@H](CO)C(=O)N[C@@H](CC(C)C)C(=O)O` [AMA1_480] (H-FISDDKDSL-OH), the IC50 is reported as 336000 nM.

The compounds below were run against HLA-A*0101 (Homo sapiens, UniProt P04439, A114D/A174V/A182V/D101N/D185E/E176A/E190D/L180R/Q94H/R68K/S129P/T187R/V100A/V91M/W191G) (assay: biochemical). Settings: allele A*0101; cell-free competition, fluorescence polarization at 72 hours; Non-binder = no dose-dependent inhibition.
Type: binding
Procedure: as §1
In the case of LSDTLQLHED [EBA175_0881], the “IC50 (nM)” value is reported as “Non-binder”.

Same assay, conditions: allele A*0101; cell-free competition, fluorescence polarization at 72 hours; Non-binder = no dose-dependent inhibition; read-out: IC50
`CC(C)C[C@H](NC(=O)[C@H](CCCCN)NC(=O)[C@H](CC(=O)O)NC(=O)[C@H](CC(C)C)NC(=O)[C@H](CC(N)=O)NC(=O)[C@H](CC(=O)O)NC(=O)[C@@H](NC(=O)[C@@H](N)C(C)C)[C@@H](C)O)C(=O)N[C@@H](CO)C(=O)N[C@@H](CC(N)=O)C(=O)O` [EBA175_1465] (H-VTDNLDKLSN-OH) gave an IC50 of 188000 nM.
Work on `CC[C@H](C)[C@H](NC(=O)[C@H](CC(C)C)NC(=O)[C@H](CO)NC(=O)[C@H](CO)NC(=O)[C@@H](N)[C@@H](C)O)C(=O)N[C@@H](CCCCN)C(=O)N[C@@H](CCC(N)=O)C(=O)N[C@@H](CC(N)=O)C(=O)N[C@@H](CCCCN)C(=O)N[C@@H](Cc1ccc(O)cc1)C(=O)O` [EBA175_0114] (H-TSSLIKQNKY-OH) yielded an IC50 of 37100 nM.
`CC[C@H](C)[C@H](NC(=O)[C@H](CCCNC(=N)N)NC(=O)[C@H](CCC(=O)O)NC(=O)[C@@H](NC(=O)[C@@H](N)[C@@H](C)O)[C@@H](C)O)C(=O)N[C@@H](CO)C(=O)N[C@@H](CC(N)=O)C(=O)N[C@@H](CC(N)=O)C(=O)N[C@@H](CCC(=O)O)C(=O)N[C@@H](Cc1ccc(O)cc1)C(=O)O` [EBA175_1084] (H-TTERISNNEY-OH) gave an IC50 of 904 nM.
`C[C@@H](O)[C@H](NC(=O)[C@@H](N)Cc1ccccc1)C(=O)N[C@@H](Cc1ccc(O)cc1)C(=O)N[C@@H](CC(=O)O)C(=O)N[C@@H](CO)C(=O)N[C@@H](CCC(=O)O)C(=O)N[C@@H](CCC(=O)O)C(=O)N[C@@H](Cc1ccc(O)cc1)C(=O)N[C@@H](Cc1ccc(O)cc1)C(=O)O` [EBA175_1392] (H-FTYDSEEYY-OH) was tested, and the IC50 was 136 nM.

Same assay, conditions: allele A*0101; fluorescence polarization competition
With DSCVPNTNEY [RIPR_0976] the “IC50 (nM), in vitro HLA binding affinity” value was “Non-binder”.
In the case of NLFEQLSCY [RH5_338], the “IC50 (nM), in vitro HLA binding affinity” value is reported as “Non-Binder”.
With STDPHTNSNN [RIPR_0545] the “IC50 (nM), in vitro HLA binding affinity” value was “Non-binder”.

Same assay, conditions: allele A*0101; fluorescence polarization competition; read-out: IC50 (nM), in vitro HLA binding affinity
Compound `CC[C@H](C)[C@H](NC(=O)[C@@H](NC(=O)[C@H](Cc1ccccc1)NC(=O)[C@H](CC(=O)O)NC(=O)[C@H](CC(C)C)NC(=O)[C@@H](N)Cc1c[nH]cn1)C(C)C)C(=O)N[C@H](C(=O)N1CCC[C@H]1C(=O)N[C@@H](Cc1c[nH]cn1)C(=O)N[C@@H](Cc1ccc(O)cc1)C(=O)O)[C@@H](C)CC` [RH5_170] (H-HLDFVIIPHY-OH) has an IC50 of 118000 nM.
`CC[C@H](C)[C@H](NC(=O)[C@H](Cc1ccc(O)cc1)NC(=O)[C@H](CCC(=O)O)NC(=O)[C@H](CC(=O)O)NC(=O)[C@H](CC(N)=O)NC(=O)[C@@H](N)CC(C)C)C(=O)N[C@H](C(=O)N[C@@H](CO)C(=O)N[C@@H](Cc1ccc(O)cc1)C(=O)O)C(C)C` [CYRPA_286] (H-LNDEYIVSY-OH) was tested, and the IC50 was 28100 nM.
Work on `C[C@H](N)C(=O)N[C@@H](CO)C(=O)N[C@@H](CC(=O)O)C(=O)N[C@@H](CCC(N)=O)C(=O)N1CCC[C@H]1C(=O)N[C@@H](CCCCN)C(=O)N[C@@H](CCC(N)=O)C(=O)N[C@@H](Cc1ccc(O)cc1)C(=O)N[C@@H](CCC(=O)O)C(=O)N[C@@H](CCC(N)=O)C(=O)O` [AMA1_346] (H-ASDQPKQYEQ-OH) yielded an IC50 of 126000 nM.
For `CC(C)[C@H](NC(=O)[C@H](CC(N)=O)NC(=O)[C@H](CCCCN)NC(=O)[C@H](Cc1ccc(O)cc1)NC(=O)[C@H](CC(=O)O)NC(=O)[C@H](CCC(=O)O)NC(=O)[C@H](CC(N)=O)NC(=O)[C@@H](N)CC(N)=O)C(=O)N[C@@H](CC(=O)O)C(=O)N[C@@H](Cc1ccc(O)cc1)C(=O)O` [RH5_130] (H-NNEDYKNVDY-OH), the IC50 was 7990 nM.
Work on `CC(C)[C@H](NC(=O)[C@H](CC(N)=O)NC(=O)[C@H](CCCCN)NC(=O)[C@H](Cc1ccc(O)cc1)NC(=O)[C@H](CC(=O)O)NC(=O)[C@H](CCC(=O)O)NC(=O)[C@@H](N)CC(N)=O)C(=O)N[C@@H](CC(=O)O)C(=O)N[C@@H](Cc1ccc(O)cc1)C(=O)O` [RH5_131] (H-NEDYKNVDY-OH) yielded an IC50 of 8920 nM.
`CC[C@H](C)[C@H](NC(=O)[C@H](CO)NC(=O)[C@@H](N)CC(N)=O)C(=O)N[C@@H](CC(C)C)C(=O)N[C@H](C(=O)N[C@@H](CCCCN)C(=O)N1CCC[C@H]1C(=O)N[C@@H](CCC(=O)O)C(=O)N[C@@H](CCCCN)C(=O)N[C@@H](Cc1ccc(O)cc1)C(=O)O)[C@@H](C)CC` [CYRPA_311] (H-NSILIKPEKY-OH) gave an IC50 of 109000 nM.
`CC(C)C[C@H](NC(=O)CNC(=O)[C@H](CC(=O)O)NC(=O)[C@H](CC(N)=O)NC(=O)[C@@H](NC(=O)[C@H](CC(N)=O)NC(=O)[C@@H](NC(=O)[C@@H](N)CC(N)=O)[C@@H](C)O)C(C)C)C(=O)N[C@@H](CCCCN)C(=O)N[C@@H](Cc1ccc(O)cc1)C(=O)O` [RH5_88] (H-NTNVNDGLKY-OH) was tested, and the IC50 was 4120 nM.
`CC[C@H](C)[C@H](NC(=O)[C@H](CCC(=O)O)NC(=O)[C@@H](NC(=O)[C@@H](N)CO)[C@@H](C)CC)C(=O)N[C@H](C(=O)N[C@@H](CCC(=O)O)C(=O)N[C@@H](CCCNC(=N)N)C(=O)N[C@@H](CO)C(=O)N[C@@H](CC(N)=O)C(=O)N[C@@H](Cc1ccc(O)cc1)C(=O)O)C(C)C` [AMA1_096] (H-SIEIVERSNY-OH) was tested, and the IC50 was 12100 nM.
For `N=C(N)NCCC[C@H](NC(=O)[C@H](Cc1ccc(O)cc1)NC(=O)[C@H](CO)NC(=O)[C@H](CC(=O)O)NC(=O)[C@H](CC(=O)O)NC(=O)[C@H](CC(N)=O)NC(=O)[C@H](CCCCN)NC(=O)[C@@H](N)CC(N)=O)C(=O)N[C@@H](Cc1ccc(O)cc1)C(=O)O` [RH5_246] (H-NKNDDSYRY-OH), the IC50 was 6680 nM.
Work on `CC[C@H](C)[C@H](NC(=O)[C@H](CC(=O)O)NC(=O)[C@H](CC(=O)O)NC(=O)[C@H](CCCCN)NC(=O)[C@H](CCC(=O)O)NC(=O)[C@H](CCC(=O)O)NC(=O)[C@H](CCC(=O)O)NC(=O)[C@@H](NC(=O)[C@@H](N)CO)[C@@H](C)O)C(=O)N[C@@H](CCCCN)C(=O)O` [RH5_46] (H-STEEEKDDIK-OH) yielded an IC50 of 6830 nM.
In the case of `CC[C@H](C)[C@H](NC(=O)[C@H](Cc1ccccc1)NC(=O)[C@H](CCCCN)NC(=O)[C@@H](NC(=O)[C@@H](NC(=O)[C@H](CC(=O)O)NC(=O)[C@@H](NC(=O)[C@@H](N)Cc1ccc(O)cc1)[C@@H](C)CC)[C@@H](C)O)[C@@H](C)CC)C(=O)N[C@@H](Cc1c[nH]cn1)C(=O)N[C@@H](CCCCN)C(=O)O` [RH5_406] (H-YIDTIKFIHK-OH), the IC50 is reported as 1510 nM.
Work on `N=C(N)NCCC[C@H](NC(=O)[C@@H](N)Cc1c[nH]cn1)C(=O)N[C@@H](CCC(=O)O)C(=O)N[C@@H](Cc1c[nH]cn1)C(=O)N1CCC[C@H]1C(=O)N[C@@H](CCCCN)C(=O)N[C@@H](CCC(=O)O)C(=O)N[C@@H](Cc1ccc(O)cc1)C(=O)N[C@@H](CCC(=O)O)C(=O)N[C@@H](Cc1ccc(O)cc1)C(=O)O` [AMA1_044] (H-HREHPKEYEY-OH) yielded an IC50 of 11100 nM.
